We go through three compounds from patent US7771736B2, “Glyphosate formulations and their use for the inhibition of 5-enolpyruvylshikimate-3-phosphate synthase” (Monsanto Technology LLC, priority 2002, dated 2010).

Read-outs that look alike come from different tables or passages of the source.

The test system of one data set is Toxoplasma gondii. The settings on record: cited from earlier work.
The next data set has as its system Plasmodium falciparum. The following applies: Plasmodium falciparum (malaria); cited from earlier work.
A further data set has as its system Cryptosporidium parvum. The settings on record: cited from earlier work.
In the next data set the test system is maize EPSPS. The data set is described as follows: enzyme activity of maize EPSPS (HPLC radioassay, S3P and 14C-PEP) with oxalate or citrate in the presence and absence of glyphosate. The class given is biochemical. The settings on record: for effect on the inhibition of EPSPS by glyphosate (rate of catalytic activity on S3P and PEP): additive with 0, 0.6 or 6 mcM glyphosate, relative rate normalized to zero glyphosate. The protocol: These examples assessed the enzyme activity of maize EPSPS with increasing concentrations of oxalate (0, 0.06 mcM, 0.3 mcM, 1.5 mcM, 7.5 mcM and 37.5 mcM) in the presence and absence of glyphosate. Three different conditions (0, 0.6 mcM, and 6 mcM glyphosate) were studied. The assay consisted of incubating enzyme (9 mcg/mL final concentration in the assay) with S3P and ^14C-PEP. The conversion of labeled substrate to 5-enol-[^14C]-pyruvylshikimate-3-phosphate was determined by HPLC radioassay.
Initial velocities were calculated by multiplying fractional turnover per unit time by the initial concentration of the labeled substrate. The data are expressed as relative rates of the enzyme, where relative rate is the reaction rate at a given condition normalized to similar reaction with zero glyphosate.

A further data set deals with different weed species. Kind of data set: herbicidal efficacy in whole plants / on different weed species. The following applies: for enhancement of glyphosate herbicidal efficacy: additive combined with glyphosate, whole plants / weed species. Type of data set: in vivo.
The conditions of data set [1]: Metal Ion Ca2+; cited from earlier work.
For data set [2] the following is noted: Metal Ion Mg2+; cited from earlier work.

Take `O=C(O)CNCP(=O)(O)O` [glyphosate, N-phosphonomethyl glycine]: the “growth inhibition of parasite” value in the data set with Toxoplasma gondii, in the data set on Plasmodium falciparum and in the data set with Cryptosporidium parvum was “growth of these parasites can be inhibited” each time.

Take `O=C(O)C(=O)O` [Oxalic acid, oxalic acid]: the “effect on the inhibition of EPSPS by glyphosate (rate of catalytic activity on S3P and PEP)” value in the data set with maize EPSPS is recorded as “enhance the inhibition of EPSPS by glyphosate”; in the data set on maize EPSPS (listed as oxalate), “enhanced the enzyme binding of glyphosate”. Also, the “inhibitory effect on the enzyme on its own” value in the data set with maize EPSPS (without glyphosate) is given as “do not have any inhibitory effect on the enzyme on their own”. Moreover, the “herbicidal property by itself” value with different weed species (additive alone, enzyme studies and whole plant response) is given as “does not have any herbicidal property”. Moreover, in the data set on different weed species, the “enhancement of glyphosate herbicidal efficacy” value was “enhance the inhibition of EPSPS by glyphosate as well as its herbicidal efficacy in whole plants”. Moreover, the “Log K (Binding Constant)” value in data set [1] is on record as 2.46; in data set [2], 2.76.

Regarding `O=C(O)CC(O)(CC(=O)O)C(=O)O` [Citric acid, citric acid], in the data set on maize EPSPS, the “effect on the inhibition of EPSPS by glyphosate (rate of catalytic activity on S3P and PEP)” value is on record as “did not have any effect on EPSPS inhibition by glyphosate”. Further, the “enhancement of glyphosate herbicidal efficacy” value in the data set with different weed species is “failed to show enhancement of glyphosate efficacy on different weed species”. In addition, the “Log K (Binding Constant)” value in data set [1] and in data set [2] was 3.45 throughout.
